Tests used:
Type in all cases: cell-based
AHR [1] = target: T1, AHR (Homo sapiens, UniProt P35869); assay: In vitro assay 1: antagonism in human cell line (transactivation assay, U87 cells prestimulated with kynurenic acid, DRE firefly luciferase reporter); design: host or cells: U87 glioblastoma cells, stably transfected with DRE firefly luciferase and renilla reporter constructs; settings: 150 uM kynurenic acid, 20 hours, read-out: Assay 1: AHR-luc Hum Antagonism IC50
T1 sequence (P35869 11-848): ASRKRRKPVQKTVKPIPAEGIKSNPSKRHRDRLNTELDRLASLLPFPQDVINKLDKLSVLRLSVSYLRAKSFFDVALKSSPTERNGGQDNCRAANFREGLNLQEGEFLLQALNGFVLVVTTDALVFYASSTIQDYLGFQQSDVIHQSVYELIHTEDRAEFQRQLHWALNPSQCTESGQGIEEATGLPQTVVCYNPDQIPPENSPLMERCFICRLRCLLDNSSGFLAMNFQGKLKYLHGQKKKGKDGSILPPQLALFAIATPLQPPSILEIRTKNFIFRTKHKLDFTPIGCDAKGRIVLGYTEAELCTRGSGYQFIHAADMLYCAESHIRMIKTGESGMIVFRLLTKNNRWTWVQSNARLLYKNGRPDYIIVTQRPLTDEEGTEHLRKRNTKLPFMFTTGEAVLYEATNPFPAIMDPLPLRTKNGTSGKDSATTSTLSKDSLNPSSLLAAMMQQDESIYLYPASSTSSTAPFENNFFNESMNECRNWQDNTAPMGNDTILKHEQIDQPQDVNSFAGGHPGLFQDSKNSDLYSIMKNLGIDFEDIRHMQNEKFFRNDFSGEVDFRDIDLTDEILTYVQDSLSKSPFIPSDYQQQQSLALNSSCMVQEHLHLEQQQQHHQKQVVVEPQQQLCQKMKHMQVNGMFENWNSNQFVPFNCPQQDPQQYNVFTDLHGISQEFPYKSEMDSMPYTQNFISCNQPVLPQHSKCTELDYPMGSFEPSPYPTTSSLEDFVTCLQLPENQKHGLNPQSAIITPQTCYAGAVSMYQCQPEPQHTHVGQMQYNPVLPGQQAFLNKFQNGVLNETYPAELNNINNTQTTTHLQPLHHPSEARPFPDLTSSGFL
Outline: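 Antagonism measured after kynurenic acid prestimulation in U87 cells that express AHR endogenously and stably harbor a firefly luciferase gene under DRE control plus a constitutive renilla construct. Positive and negative controls served for normalization.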

AHR [2] = target: T1, AHR; assay: In vitro assay 2: agonism in human cell line (transactivation assay, U87 cells, DRE firefly luciferase reporter); design: host or cells: U87 glioblastoma cells, stably transfected with DRE firefly luciferase and renilla reporter constructs; settings: no kynurenic acid, 20 hours, read-out: Assay 2: AHR-luc Hum Agonism IC50
Outline: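 Agonist readout: DRE firefly luciferase, with constitutive renilla reporter, in stably transfected U87 cells expressing AHR endogenously. Normalization used positive control (300 uM kynurenic acid) and negative control.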

AHR [3] = target: T1, AHR; assay: In vitro assay 3: AHR-regulated CYP1A1 expression in human cell line (U937, qPCR, KA stimulation); settings: U937 cells, 200 uM KA, 6 hours, CYP1A1 expression by qPCR; read-out: Assay 3: Hum CYP1A1 Antagonism IC50
Procedure: In Vitro Assay 3: AHR-Regulated CYP1A1 Expression in Human Cell Line
To assess the AHR inhibitory activity of the substances described in this application, the ability thereof to antagonise ligand-induced AHR gene regulation in a dose-dependent manner was quantified. For this purpose, quantitative PCR analysis was used to determine expression of the AHR-regulated gene CYP1A1 in a human monocytic U937 cell line upon stimulation with 200 uM KA in the presence and absence of AHR inhibitor. […] CYP1A1 expression was induced with 200 uM KA (positive control) in the presence or absence of the substances for 6 hours. Human U937 cells were typically incubated with eight different concentrations of the substances (1 nM, 3 nM, 10 nM, 30 nM, 100 nM, 300 nM, 1 uM and 3 uM) and analyzed in duplicate on the same microtitre plate. […] Unstimulated cells were used as the negative control. Taqman probes for human CYP1A1 (Hs01054797_g1) and human HPRT (Hs02800695_m1) were used to analyze fold expression of CYP1A1 of HPRT. Quantitation was performed on a Taqman SDS7900HT.

Structure (SMILES)	IC50 (AHR [1]) [nM]	IC50 (AHR [2]) [nM]	IC50 (AHR [3]) [nM]
Cn1cc(-n2nc(-c3ccc(Cl)cc3)cc(C(=O)N[C@@H]3CCC[C@]3(C)O)c2=O)cn1 (relative stereo) [Example 317, 6-(4-Chlorophenyl)-N-[(cis)-2-hydroxy-2-methylcyclopentyl]-2-(1-methyl-1H-pyrazol-4-yl)-3-oxo-2,3-dihydropyridazine-4-carboxamide]	30.3	> 20000	37.3
Cc1ccc(-c2cc(C(=O)NC(CO)C(C)C)c(=O)n(-c3cnn(C)c3)n2)cc1 (single isomer, unassigned) [Example 2, N-(1-Hydroxy-3-methylbutan-2-yl)-6-(4-methylphenyl)-2-(1-methyl-1H-pyrazol-4-yl)-3-oxo-2,3-dihydropyridazine-4-carboxamide]	2.57	> 20000	3.03
Cn1cc(-n2nc(-c3ccc(C(F)(F)F)cc3)cc(C(=O)N[C@@H]3COC[C@@H]3O)c2=O)cn1 (single isomer, unassigned) [Example 218, (+)-N-cis-4- Hydroxytetrahyd rofuran-3-yl-2-(1-methyl-1H-pyrazol-4-yl)-3-oxo-6-[4-(trifluoromethyl)phenyl]-2,3-dihydropyridazine-4-carboxamide]	2.78	> 20000	4.01
C[C@H](O)[C@H](C)NC(=O)c1cc(-c2ccc(OC(F)F)cc2)nn(-c2cccnc2)c1=O [Example 334, 6-[4-(Difluoromethoxy)phenyl]-N-[(2S,3S)-3-hydroxybutan-2-yl]-3-oxo-2-(pyridin-3-yl)-2,3-dihydropyridazine-4-carboxamide]	60.2	> 20000	
CC(C)[C@@H](CO)NC(=O)c1cc(-c2ccc(C(F)(F)F)nc2)nn(-c2cncc(F)c2)c1=O [Example 337, 2-(5-Fluoropyridin-3-yl)-N-[(2S)-1-hydroxy-3-methylbutan-2-yl]-3-oxo-6-[6-(trifluoromethyl)pyridin-3-yl]-2,3-dihydropyridazine-4-carboxamide]	20.8	> 20000	
O=C(N[C@H]1CCC[C@H]1O)c1cc(-c2ccc(C(F)(F)F)nc2)nn(-c2cncc(F)c2)c1=O [Example 338, 2-(5-Fluoropyridin-3-yl)-N-[(1S,2R)-2-hydroxycyclopentyl]-3-oxo-6-[6-(trifluoromethyl)pyridin-3-yl]-2,3-dihydropyridazine-4-carboxamide]	24.1	> 20000	
O=C(N[C@H](CO)C1CC1)c1cc(-c2ccc(C(F)(F)F)nc2)nn(-c2cncc(F)c2)c1=O [Example 339, N-[(1S)-1-Cyclopropyl-2-hydroxyethyl]-2-(5-fluoropyridin-3-yl)-3-oxo-6-[6-(trifluoromethyl)pyridin-3-yl]-2,3-dihydropyridazine-4-carboxamide]	27.6	> 20000	
C[C@H](NC(=O)c1cc(-c2ccc(C(F)(F)F)nc2)nn(-c2cncc(F)c2)c1=O)C(C)(C)O [Example 340, 2-(5-Fluoropyridin-3-yl)-N-[(2S)-3-hydroxy-3-methylbutan-2-yl]-3-oxo-6-[6-(trifluoromethyl)pyridin-3-yl]-2,3-dihydropyridazine-4-carboxamide]	49.7	> 20000	
N#C[C@@H](CO)NC(=O)c1cc(-c2ccc(C(F)(F)F)nc2)nn(-c2cncc(F)c2)c1=O [Example 341, N-[(1S)-1-Cyano-2-hydroxyethyl]-2-(5-fluoropyridin-3-yl)-3-oxo-6-[6-(trifluoromethyl)pyridin-3-yl]-2,3-dihydropyridazine-4-carboxamide]	102	> 20000	
C[C@@H](NC(=O)c1cc(-c2ccc(C(F)(F)F)nc2)nn(-c2cncc(F)c2)c1=O)C(C)(C)O [Example 342, 2-(5-Fluoropyridin-3-yl)-N-[(2R)-3-hydroxy-3-methylbutan-2-yl]-3-oxo-6-[6-(trifluoromethyl)pyridin-3-yl]-2,3-dihydropyridazine-4-carboxamide]	132	> 20000	
O=C(N[C@H]1COCC[C@H]1O)c1cc(-c2ccc(C(F)(F)F)nc2)nn(-c2cncc(F)c2)c1=O [Example 343, 1,5-Anhydro-2,4-dideoxy-2-[({2-(5-fluoropyridin-3-yl)-3-oxo-6-[6-(trifluoromethyl)pyridin-3-yl]-2,3-dihydropyridazine-4-yl}carbonyl)amino]-D-erythro-pentitol]	171	> 20000	
CC(C)(O)CNC(=O)c1cc(-c2ccc(C(F)(F)F)nc2)nn(-c2cncc(F)c2)c1=O [Example 344, 2-(5-Fluoropyridin-3-yl)-N-(2-hydroxy-2-methylpropyl)-3-oxo-6-[6-(trifluoromethyl)pyridin-3-yl]-2,3-dihydropyridazine-4-carboxamide]	174	> 20000	

Next, values leading:

IC50 (AHR [1]) [nM]	IC50 (AHR [2]) [nM]	IC50 (AHR [3]) [nM]	Structure (SMILES)
11.9	> 20000	13.8	O=C(NC(CO)C(F)(F)F)c1cc(-c2ccc(Cl)cc2)nn(-c2cccnc2)c1=O (racemic) [Example 76, 6-(4-Chlorophenyl)-3-oxo-2-(pyridin-3-yl)-N-[(2RS)-1,1,1-trifluoro-3-hydroxypropan-2-yl]-2,3-dihydropyridazine-4-carboxamide]
11.2	> 20000	8.7	O=C(NC(CO)C1CC1)c1cc(-c2ccc(Cl)cc2)nn(-c2cccnc2)c1=O (racemic) [Example 77, 6-(4-Chlorophenyl)-N-[(1RS)-1-cyclopropyl-2-hydroxyethyl]-3-oxo-2-(pyridin-3-yl)-2,3-dihydropyridazine-4-carboxamide]
6.68	> 20000	4.81	O=C(NCC(O)C(F)(F)F)c1cc(-c2ccc(Cl)cc2)nn(-c2cccnc2)c1=O (racemic) [Example 78, 6-(4-Chlorophenyl)-3-oxo-2-(pyridin-3-yl)-N-[(2RS)-3,3,3-trifluoro-2-hydroxypropyl]-2,3-dihydropyridazine-4-carboxamide]
29.5	> 20000	23.4	O=C(N[C@H]1COC[C@H]1O)c1cc(-c2ccc(Cl)cc2)nn(-c2cccnc2)c1=O (single isomer, unassigned) [Example 172, 6-(4-chlorophenyl)-N-[(cis)-4-hydroxytetrahydrofuran-3-yl]-3-oxo-2-(pyridin-3-yl)-2,3-dihydropyridazine-4-carboxamide]
54.9	> 20000	140	O=C(N[C@H]1COC[C@H]1O)c1cc(-c2ccc(Cl)cc2)nn(-c2cccnc2)c1=O (single isomer, unassigned) [Example 173, 6-(4-Chlorophenyl)-N-[(cis)-4-hydroxytetrahydrofuran-3-yl]-3-oxo-2-(pyridin-3-yl)-2,3-dihydropyridazine-4-carboxamide]
2.44	> 20000	7.01	O=C(N[C@@H]1CC[C@@H]1O)c1cc(-c2ccc(C(F)(F)F)cc2)nn(-c2cccnc2)c1=O (single isomer, unassigned) [Example 217, (+)-N-cis-2- Hydroxycyclobutyl-3-oxo-2-(pyridin-3-yl)-6-[4-(trifluoromethyl)phenyl]-2,3-dihydropyridazine-4-carboxamide]
55.3	> 20000		C[C@@H](CO)NC(=O)c1cc(-c2ccc(C(F)(F)F)cn2)nn(-c2cccnc2)c1=O [Example 345, N-[(2S)-1-Hydroxypropan-2-yl]-3-oxo-2-(pyridin-3-yl)-6-[5-(trifluoromethyl)pyridin-2-yl]-2,3-dihydropyridazine-4-carboxamide]

Source: patent US12522594B2, “2-heteroaryl-3-oxo-2,3-dihydropyridazine-4-carboxamides for the treatment of cancer” (Deutsches Krebsforschungszentrum, priority 2017, dated 2026)
